Assays:
[1] = biological target: T1, recombinant human ACC1 (rhACC1) (Homo sapiens, UniProt Q13085, DEL44-44); assay: recombinant hACC1 Transcreener assay (direct inhibition of ACC1 activity); format: biochemical; settings: Transcreener ADP detection FP assay, 50 μM ATP, 30 μM acetyl-CoA, 120 min at 25° C.
T1 construct: recombinant baculovirus containing full length human ACC1 cDNA; made in house; host or cells: SF9 insect cells (baculovirus)
Protocol: For example direct inhibition of ACC activity, for the compound of Formula (1) was determined using preparations of recombinant human ACC1 (rhACC1) and recombinant human ACC2 (rhACC2). Representative sequences of the recombinant human ACC1 and ACC2 that can be used in the assay are provided in FIG. 1 (SEQ ID NO. 1) and FIG. 2 (SEQ. ID NO. 2), respectively. Preparation of rhACC1. Two liters of SF9 cells, infected with recombinant baculovirus containing full length human ACC1 cDNA, were suspended in ice-cold lysis buffer (25 mM Tris, pH 7.5; 150 mM NaCl; 10% glycerol; 5 mM imidazole (EMD Bioscience; Gibbstown, N.J.); 2 mM TCEP (BioVectra; Charlottetown, Canada); Benzonase nuclease (10000 U/100 g cell paste; Novagen; Madison, Wis.); EDTA-free protease inhibitor cocktail (1 tab/50 mL; Roche Diagnostics; Mannheim, Germany). Cells were lysed by 3 cycles of freeze-thaw and centrifuged at 40,000×g for 40 minutes (4° C.). Supernatant was directly loaded onto a HisTrap FF crude column (GE Healthcare; Piscataway, N.J.) and eluted with an imidazole gradient up to 0.5 M over 20 column volumes (CV). ACC1-containing fractions were pooled and diluted 1:5 with 25 mM Tris, pH 7.5, 2 mM TCEP, 10% glycerol and direct loaded onto a CaptoQ (GE Healthcare) column and eluted with an NaCl gradient up to 1 M over 20 CV's. Phosphate groups were removed from purified ACC1 by incubation with lambda phosphatase (100 U/10 μM target protein; New England Biolabs; Beverly, Mass.) for 14 hours at 4° C.; okadaic acid was added (1 μM final concentration; Roche Diagnostics) to inhibit the phosphatase. Purified ACC1 was exchanged into 25 mM Tris, pH 7.5, 2 mM TCEP, 10% glycerol, 0.5 M NaCl by 6 hour dialysis at 4° C. Aliquots were prepared and frozen at −80° C. […] The final conditions for the assay were 50 mM HEPES, pH 7.2, 10 mM MgCl2, 7.5 mM tripotassium citrate, 2 mM DTT, 0.1 mg/mL BSA, 30 μM acetyl-CoA, 50 μM ATP, and 10 mM KHCO3 Typically, a 10 μl reaction was run for 120 min at 25° C., and 10 μl of Transcreener stop and detect buffer was added and the combination incubated at room temp for an additional 1 hour. The data was acquired on a Envision Fluorescence reader (Perkinelmer) using a 620 excitation Cy5 FP general dual mirror, 620 excitation Cy5 FP filter, 688 emission (S) and a 688 (P) emission filter.

[2] = biological target: T2, recombinant human ACC2 (rhACC2) (Homo sapiens, UniProt O00763, V2141I); assay: recombinant hACC2 Transcreener assay (direct inhibition of ACC2 activity); format: biochemical; settings: Transcreener ADP detection FP assay, 50 μM ATP, 30 μM acetyl-CoA, 50 min at 25° C.
T2 construct: a full length Cytomax clone of ACC2 was purchased from Cambridge Bioscience Limited; made in house; host or cells: CHO cells (tetracycline-induced, pcDNA5 FRT TO-TOPO)
T2 sequence (O00763 whole entry V2141I): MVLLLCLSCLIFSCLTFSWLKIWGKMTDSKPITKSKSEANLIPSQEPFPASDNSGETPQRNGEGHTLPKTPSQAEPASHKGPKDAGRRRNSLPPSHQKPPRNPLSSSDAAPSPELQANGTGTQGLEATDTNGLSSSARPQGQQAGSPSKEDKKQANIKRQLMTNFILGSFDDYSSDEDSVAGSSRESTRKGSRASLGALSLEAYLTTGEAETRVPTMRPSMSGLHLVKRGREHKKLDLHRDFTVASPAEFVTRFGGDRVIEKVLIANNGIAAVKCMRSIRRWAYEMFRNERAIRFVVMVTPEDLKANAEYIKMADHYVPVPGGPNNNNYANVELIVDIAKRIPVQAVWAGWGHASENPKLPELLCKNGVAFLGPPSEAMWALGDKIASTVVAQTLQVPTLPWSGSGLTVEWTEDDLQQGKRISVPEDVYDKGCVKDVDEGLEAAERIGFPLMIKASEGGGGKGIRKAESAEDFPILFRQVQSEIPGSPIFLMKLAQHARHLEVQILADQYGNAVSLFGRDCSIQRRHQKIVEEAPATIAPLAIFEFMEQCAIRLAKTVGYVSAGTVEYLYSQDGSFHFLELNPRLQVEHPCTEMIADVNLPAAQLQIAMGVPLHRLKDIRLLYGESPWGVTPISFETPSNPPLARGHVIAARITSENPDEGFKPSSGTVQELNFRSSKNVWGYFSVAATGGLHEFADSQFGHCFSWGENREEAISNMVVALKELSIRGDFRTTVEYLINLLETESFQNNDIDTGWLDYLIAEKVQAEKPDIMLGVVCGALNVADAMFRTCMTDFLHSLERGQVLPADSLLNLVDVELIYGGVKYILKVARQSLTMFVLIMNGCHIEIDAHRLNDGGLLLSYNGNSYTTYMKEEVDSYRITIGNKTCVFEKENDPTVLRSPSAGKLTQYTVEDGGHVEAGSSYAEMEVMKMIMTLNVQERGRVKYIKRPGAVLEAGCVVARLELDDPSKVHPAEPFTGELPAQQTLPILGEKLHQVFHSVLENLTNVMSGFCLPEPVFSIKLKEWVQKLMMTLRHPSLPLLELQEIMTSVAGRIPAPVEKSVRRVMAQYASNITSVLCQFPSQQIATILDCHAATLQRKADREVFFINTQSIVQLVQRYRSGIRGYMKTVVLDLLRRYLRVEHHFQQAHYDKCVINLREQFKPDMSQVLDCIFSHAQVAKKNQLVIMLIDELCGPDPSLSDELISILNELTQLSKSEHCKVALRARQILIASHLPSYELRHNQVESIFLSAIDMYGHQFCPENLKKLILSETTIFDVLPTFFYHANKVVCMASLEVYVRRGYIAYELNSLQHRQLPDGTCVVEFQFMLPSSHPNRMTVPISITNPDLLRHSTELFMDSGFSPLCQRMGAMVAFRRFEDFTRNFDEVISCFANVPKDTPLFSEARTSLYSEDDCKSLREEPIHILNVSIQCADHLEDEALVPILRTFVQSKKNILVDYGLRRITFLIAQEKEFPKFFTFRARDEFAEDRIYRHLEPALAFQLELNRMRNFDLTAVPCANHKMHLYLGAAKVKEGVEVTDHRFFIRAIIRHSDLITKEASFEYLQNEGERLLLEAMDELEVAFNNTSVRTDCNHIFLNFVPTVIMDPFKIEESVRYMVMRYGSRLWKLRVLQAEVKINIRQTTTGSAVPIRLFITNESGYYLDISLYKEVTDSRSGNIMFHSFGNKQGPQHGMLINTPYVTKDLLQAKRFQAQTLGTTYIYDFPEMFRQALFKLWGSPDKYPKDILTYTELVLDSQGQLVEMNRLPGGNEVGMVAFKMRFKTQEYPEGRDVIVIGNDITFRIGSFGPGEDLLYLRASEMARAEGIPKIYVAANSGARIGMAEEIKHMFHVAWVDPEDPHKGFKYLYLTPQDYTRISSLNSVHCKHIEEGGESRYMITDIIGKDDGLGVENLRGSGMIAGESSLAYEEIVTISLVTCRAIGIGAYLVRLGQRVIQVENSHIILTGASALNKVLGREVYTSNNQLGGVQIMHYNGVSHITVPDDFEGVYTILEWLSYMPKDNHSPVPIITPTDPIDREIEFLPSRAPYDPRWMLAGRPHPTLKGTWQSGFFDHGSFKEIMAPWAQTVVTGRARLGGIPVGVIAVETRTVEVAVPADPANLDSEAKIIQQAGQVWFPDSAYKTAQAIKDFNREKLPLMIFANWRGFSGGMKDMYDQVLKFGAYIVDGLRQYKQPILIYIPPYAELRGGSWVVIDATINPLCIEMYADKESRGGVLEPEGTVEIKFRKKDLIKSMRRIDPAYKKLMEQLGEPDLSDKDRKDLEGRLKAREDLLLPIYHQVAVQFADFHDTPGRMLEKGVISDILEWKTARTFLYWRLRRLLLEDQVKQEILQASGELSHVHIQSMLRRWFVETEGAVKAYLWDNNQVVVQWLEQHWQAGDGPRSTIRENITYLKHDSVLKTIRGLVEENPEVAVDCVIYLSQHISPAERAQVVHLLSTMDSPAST
Protocol: For example direct inhibition of ACC activity, for the compound of Formula (1) was determined using preparations of recombinant human ACC1 (rhACC1) and recombinant human ACC2 (rhACC2). Representative sequences of the recombinant human ACC1 and ACC2 that can be used in the assay are provided in FIG. 1 (SEQ ID NO. 1) and FIG. 2 (SEQ. ID NO. 2), respectively.
[3] Preparation of rhACC2. Human ACC2 inhibition was measured using purified recombinant human ACC2 (hrACC2). Briefly, a full length Cytomax clone of ACC2 was purchased from Cambridge Bioscience Limited and was sequenced and subcloned into PcDNA5 FRT TO-TOPO (Invitrogen, Carlsbad, Calif.). The ACC2 was expressed in CHO cells by tetracycline induction and harvested in 5 liters of DMEM/F12 with glutamine, biotin, hygromycin and blasticidin with 1 μg/mL tetracycline (Invitrogen, Carlsbad, Calif.). The conditioned medium containing ACC2 was then applied to a Softlink Soft Release Avidin column (Promega, Madison, Wis.) and eluted with 5 mM biotin. 4 mgs of ACC2 were eluted at a concentration of 0.05 mg/mL (determined by A280) with an estimated purity of 95% ([…]). The purified ACC2 was dialyzed in 50 mM Tris, 200 mM NaCl, 4 mM DTT, 2 mM EDTA, and 5% glycerol. The pooled protein was frozen and stored at −80° C., with no loss of activity upon thawing. For measurement of ACC2 activity and assessment of ACC2 inhibition, test compounds were dissolved in DMSO and added to the rhACC2 enzyme as a 5× stock with a final DMSO concentration of 1%.
[4] Measurement of human ACC2 inhibition. hACC2 was assayed in a Costar #3676 (Costar, Cambridge, Mass.) 384-well plate using the Transcreener ADP detection FP assay kit (Bellbrook Labs, Madison, Wisconsin) using the manufacturer's recommended conditions for a 50 uM ATP reaction. The final conditions for the assay were 50 mM HEPES, pH 7.2, 5 mM MgCl2, 5 mM tripotassium citrate, 2 mM DTT, 0.1 mg/mL BSA, 30 μM acetyl-CoA, 50 μM ATP, and 8 mM KHCO3 Typically, a 10 μl reaction was run for 50 min at 25° C., and 10 μl of Transcreener stop and detect buffer was added and the combination incubated at room temp for an additional 1 hour. The data was acquired on an Envision Fluorescence reader (Perkinelmer) using a 620 excitation Cy5 FP general dual mirror, 620 excitation Cy5 FP filter, 688 emission (S) and a 688 (P) emission filter.

IC50 [1] [µM]	IC50 [2] [µM]	SMILES
0.147	0.0318	CC(C)n1ncc2c1C(=O)CC1(CCN(C(=O)c3ccc(-c4ncc[nH]4)cc3)CC1)C2 [Example 11A-1, 1′-(4-(1H-imidazol-2-yl)benzoyl)-1-isopropyl-4,6-dihydrospiro[indazole-5,4′-piperidin]-7(1H)-one]
0.0482	0.0159	CC(C)n1ncc2c1C(=O)CC1(CCN(C(=O)c3cc(Cl)c4nc[nH]c4c3)CC1)C2 [Example 2A-47]
0.121	0.093	CC(C)n1ncc2c1C(=O)CC1(CCN(C(=O)c3cc4cccnc4[nH]3)CC1)C2 [Example 2A-20]
1.01	0.458	Cc1cc(N(C)C)ncc1C(=O)N1CCC2(CC1)CC(=O)c1c(cnn1C(C)C)C2 [Example 2A-18]
0.112	0.0438	CC(C)n1ncc2c1C(=O)CC1(CCN(C(=O)c3cccc(-c4cc[nH]n4)c3)CC1)C2 [Example 11A-15]
0.123	0.0296	CC(C)n1ncc2c1C(=O)CC1(CCN(C(=O)c3cc(F)c4nc[nH]c4c3)CC1)C2 [Example 2A-36]
3.34	2.13	CC(C)n1ncc2c1C(=O)CC1(CCN(C(=O)c3c[nH]c4ccnn4c3=O)CC1)C2 [Example 11A-35]
0.172	0.027	CC(C)n1ncc2c1C(=O)CC1(CCN(C(=O)c3ccc4c(=O)[nH]ccc4c3)CC1)C2 [Example 2A-14]
1.48	0.658	Cc1cc(C(=O)N2CCC3(CC2)CC(=O)c2c(cnn2C(C)C)C3)c(N)c(C)n1 [Example 11A-2]
0.0469	0.0136	CC(C)n1ncc2c1C(=O)CC1(CCN(C(=O)c3cc(Cl)c4[nH]ncc4c3)CC1)C2 [Example 2A-16]
0.85	0.373	CC(C)n1ncc2c1C(=O)CC1(CCN(C(=O)c3cc4cccn4cn3)CC1)C2 [Example 11A-47]
0.55	0.176	CC(C)n1ncc2c1C(=O)CC1(CCN(C(=O)c3ccn4ccnc4c3)CC1)C2 [Example 11A-52]

Continued, molecule first:

SMILES	IC50 [1] [µM]	IC50 [2] [µM]
Cn1c(=O)[nH]c2ccc(C(=O)N3CCC4(CC3)CC(=O)c3c(cnn3C(C)(C)C)C4)cc21 [Example 2A-49]	0.0921	0.0716
Cc1nc2ccc(C(=O)N3CCC4(CC3)CC(=O)c3c(cnn3C(C)(C)C)C4)cc2[nH]1 [Example 2A-21]	0.0933	0.0327
CC(C)n1ncc2c1C(=O)CC1(CCN(C(=O)c3cnc(-c4ccccn4)[nH]3)CC1)C2 [Example 11A-37]	1.03	0.463
Cc1cc(C(=O)N2CCC3(CC2)CC(=O)c2c(cnn2C)C3)ccc1Cl [Example 2A-4]	8.73	2.53
COCC(C)n1ncc2c1C(=O)CC1(CCN(C(=O)c3ccc(Cl)c(C)c3)CC1)C2 (centres unmarked) [Example 2A-3]	2.72	0.68
Cc1cc(C(=O)N2CCC3(CC2)CC(=O)c2c(cnn2CC2CCCO2)C3)ccc1Cl (centres unmarked) [Example 2A-2]	8.3	3.57
CC(C)(C)n1ncc2c1C(=O)CC1(CCN(C(=O)c3ccc4c(c3)NC(=O)CC4)CC1)C2 [Example 2A-34]	0.0724	0.0321
CNc1nc(C)ccc1C(=O)N1CCC2(CC1)CC(=O)c1c(cnn1C(C)(C)C)C2 [Example 11A-30]	0.224	0.106
CC(C)(C)n1ncc2c1C(=O)CC1(CCN(C(=O)c3cnc(-c4ccccn4)[nH]3)CC1)C2 [Example 11A-50]	0.581	0.371
CC(C)(C)n1ncc2c1C(=O)CC1(CCN(C(=O)c3ccc(-n4cccn4)nc3)CC1)C2 [Example 11A-59]	0.0868	0.0801
CC(C)n1ncc2c1C(=O)CC1(CCN(C(=O)c3cnc4c(cnn4C)c3N)CC1)C2 [Example 2A-58]	0.28	0.0741
CC(C)n1ncc2c1C(=O)CC1(CCN(C(=O)c3ccc(-n4cncn4)cc3)CC1)C2 [Example 11A-54]	1.5	0.295
CC(C)(C)n1ncc2c1C(=O)CC1(CCN(C(=O)c3ccc(-c4ncc[nH]4)cc3)CC1)C2 [Example 11A-53]	0.0683	0.0228
CC(C)(C)n1ncc2c1C(=O)CC1(CCN(C(=O)c3cc4ccccn4c3)CC1)C2 [Example 11A-36]	0.194	0.0756
Cc1nn(C(C)C)c2c1CC1(CCN(C(=O)c3ccc4[nH]ncc4c3)CC1)CC2=O [Example 2A-75]	0.113	0.0377
CC(C)n1ncc2c1C(=O)CC1(CCN(C(=O)c3ccc(N4CCOCC4)cn3)CC1)C2 [Example 11A-42]	11.7	2.85
CC(C)(C)n1ncc2c1C(=O)CC1(CCN(C(=O)c3cc4cccnc4[nH]3)CC1)C2 [Example 12A-1, 1-tert-butyl-1′-(1H-pyrrolo[2,3-b]pyridine-2-carbonyl)-4,6-dihydrospiro[indazole-5,4′-piperidin]-7(1H)-one]	0.0395	0.0673
Cn1ncc2c(=O)c(C(=O)N3CCC4(CC3)CC(=O)c3c(cnn3C(C)(C)C)C4)c[nH]c21 [Example 11A-70]	1.86	1.04
CC(C)(C)n1ncc2c1C(=O)CC1(CCN(C(=O)c3ccc(N4CCOCC4)nc3)CC1)C2 [Example 11A-22]	1.26	0.539
CC(C)n1ncc2c1C(=O)CC1(CCN(C(=O)c3cn4cccc4cn3)CC1)C2 [Example 11A-34]	2.14	0.638
Cc1ccn2cc(C(=O)N3CCC4(CC3)CC(=O)c3c(cnn3C(C)C)C4)nc2c1 [Example 11A-40]	1.14	0.588
Cn1c(=O)[nH]c2cc(C(=O)N3CCC4(CC3)CC(=O)c3c(cnn3C(C)(C)C)C4)ccc21 [Example 2A-45]	0.0737	0.0329
CC(C)n1ncc2c1C(=O)CC1(CCN(C(=O)c3ccc(N4CCOCC4)nc3)CC1)C2 [Example 11A-24]	6.06	0.836
CC(C)(C)n1ncc2c1C(=O)CC1(CCN(C(=O)c3ccc4c(c3)CC(=O)N4)CC1)C2 [Example 2A-30]	0.17	0.051
Cc1cc(C(=O)N2CCC3(CC2)CC(=O)c2c(cnn2C(C)(C)C)C3)ccc1Cl [Example 1A-2]	0.444	0.0623
